Reference: ChEMBL document CHEMBL1201862, “PubChem BioAssay data set” (2004)
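These data come from cells grown in 96-well plates and exposed to compound for 48 hours at five concentrations. Here, GI50 denotes the concentration required for 50% inhibition of growth.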 Active and inactive are the calls of the source. Cut-off read from the data, not from the text of the source: active = GI50 up to about 1.1 µM and inactive = higher.

Experiments:
Experiment in all cases: inhibition of tumour cell growth, NCI panel, 48 h
[1] = system: ACHN
[2] = system: EKVX
[3] = system: HCT-15
[4] = system: HOP-62
[5] = system: HOP-92
[6] = system: IGROV-1
[7] = system: NCI-H460
[8] = system: OVCAR-4
[9] = system: RPMI-8226
[10] = system: SF-268
[11] = system: SNB-19
[12] = system: SR
[13] = system: UACC-62
[14] = system: SNB-75

Row | SMILES | GI50 [1] | GI50 [2] | GI50 [3] [µM] | GI50 [4] | GI50 [5] | GI50 [6] | GI50 [7] | GI50 [8] | GI50 [9] | GI50 [10] | GI50 [11] | GI50 [12] | GI50 [13] | GI50 [14]
1 | O=C(Nc1cccc([N+](=O)[O-])c1)/C(=N\NC(=O)c1ccncc1)c1nc2ccc([N+](=O)[O-])cc2nc1O | 19.7 µM (inactive) | 38 µM (inactive) | 35 | 70 µM (inactive) | 12.4 µM (inactive) | > 100 µM (inactive) | 54 µM (inactive) | > 100 µM (inactive) | 49.4 µM (inactive) | 40.7 µM (inactive) | > 100 µM (inactive) | 42.7 µM (inactive) | 58.7 µM (inactive) | –
2 | CCN(CC)CCNc1ccc2nnn3c4ccc(C)cc4c(=O)c1c23 | 5.45 µM (inactive) | – | 9.62 | 14.9 µM (inactive) | 6.55 µM (inactive) | 10.4 µM (inactive) | 3.85 µM (inactive) | 12.1 µM (inactive) | 4.62 µM (inactive) | 10.2 µM (inactive) | 12.7 µM (inactive) | 3.37 µM (inactive) | 14 µM (inactive) | 10.8 µM (inactive)
3 | CCCCCCCCCC1CC(=O)OC23CCCC(=O)C12O3 (configuration not stated) | > 100 µM (inactive) | > 100 µM (inactive) | 84.9 | > 100 µM (inactive) | > 100 µM (inactive) | > 100 µM (inactive) | > 100 µM (inactive) | > 100 µM (inactive) | > 100 µM (inactive) | > 100 µM (inactive) | > 100 µM (inactive) | – | 80 µM (inactive) | > 100 µM (inactive)
4 | O=S(=O)(c1ccccc1)C1CN2OC1(S(=O)(=O)c1ccccc1)CC21CCCCC1 (configuration not stated) | > 100 µM (inactive) | > 100 µM (inactive) | > 100 | > 100 µM (inactive) | – | > 100 µM (inactive) | 92.5 µM (inactive) | 37.1 µM (inactive) | 86.1 µM (inactive) | > 100 µM (inactive) | > 100 µM (inactive) | 52.6 µM (inactive) | > 100 µM (inactive) | > 100 µM (inactive)
5 | Cn1cnnc1Sc1c([N+](=O)[O-])ncn1C | > 100 µM (inactive) | > 100 µM (inactive) | – | > 100 µM (inactive) | 26.5 µM (inactive) | > 100 µM (inactive) | > 100 µM (inactive) | > 100 µM (inactive) | 40.5 µM (inactive) | > 100 µM (inactive) | > 100 µM (inactive) | 26.5 µM (inactive) | > 100 µM (inactive) | > 100 µM (inactive)
6 | CC1=C2C(=O)C(C)(C)C=C2C(=O)[C@](C)(O)C12CC2 [DEHYDROILLUDIN M] | 0.552 µM (active) | > 1 µM (active) | 0.468 | > 1 µM (active) | > 1 µM (active) | > 1 µM (active) | 0.23 µM (active) | 0.766 µM (active) | > 1 µM (active) | 0.521 µM (active) | > 1 µM (active) | 0.61 µM (active) | 0.586 µM (active) | > 1 µM (active)
7 | COc1ccc2c(c1)CCC(OS(=O)(=O)CC13CCC(CC1=O)C3(C)C)C2=O (configuration not stated) | 35.8 µM (inactive) | > 100 µM (inactive) | 26.7 | 29.2 µM (inactive) | 31.8 µM (inactive) | – | 18.1 µM (inactive) | 43.1 µM (inactive) | 19.7 µM (inactive) | 22.1 µM (inactive) | 41.9 µM (inactive) | 24.9 µM (inactive) | 16.9 µM (inactive) | 31.1 µM (inactive)
8 | N#CC(C(=O)/C(=N/NC(=O)c1ccccc1O)C(C#N)c1ccc(Cl)cc1)c1ccc(Cl)cc1 (configuration not stated) | 16 µM (inactive) | 22.4 µM (inactive) | 15.3 | 20.7 µM (inactive) | – | – | 15.7 µM (inactive) | 18.1 µM (inactive) | 15.8 µM (inactive) | 16.6 µM (inactive) | 15 µM (inactive) | – | – | 3.56 µM (inactive)
9 | N#CC(C(=O)/C(=N\NC(N)=O)C(C#N)c1ccccc1)c1ccccc1 (configuration not stated) | > 100 µM (inactive) | > 100 µM (inactive) | > 100 | > 100 µM (inactive) | > 100 µM (inactive) | > 100 µM (inactive) | > 100 µM (inactive) | > 100 µM (inactive) | > 100 µM (inactive) | > 100 µM (inactive) | > 100 µM (inactive) | > 100 µM (inactive) | > 100 µM (inactive) | > 100 µM (inactive)
10 | COc1ccc2c(c1)C1C(CO2)C(c2ccccc2)=NN1c1ccccc1 (configuration not stated) | > 100 µM (inactive) | > 100 µM (inactive) | – | > 100 µM (inactive) | > 100 µM (inactive) | > 100 µM (inactive) | > 100 µM (inactive) | – | 48.1 µM (inactive) | 89.3 µM (inactive) | – | – | – | 0.441 µM (active)
11 | c1ccc(CN(Cn2cccn2)Cn2cccn2)nc1 | > 100 µM (inactive) | > 100 µM (inactive) | > 100 | > 100 µM (inactive) | > 100 µM (inactive) | – | > 100 µM (inactive) | > 100 µM (inactive) | 29.4 µM (inactive) | > 100 µM (inactive) | > 100 µM (inactive) | > 100 µM (inactive) | 43.8 µM (inactive) | > 100 µM (inactive)
12 | COc1ccccc1NC(=O)CC(=O)n1nc(C)c(/N=N/c2ccccc2F)c1C | > 100 µM (inactive) | > 100 µM (inactive) | > 100 | 32.6 µM (inactive) | 37.7 µM (inactive) | > 100 µM (inactive) | > 100 µM (inactive) | > 100 µM (inactive) | > 100 µM (inactive) | 28.7 µM (inactive) | > 76 µM (inactive) | 71.8 µM (inactive) | > 100 µM (inactive) | 9.46 µM (inactive)
13 | NC(=O)c1cccc([N+](=O)[O-])c1 | – | > 100 µM (inactive) | > 100 | > 100 µM (inactive) | – | > 100 µM (inactive) | > 100 µM (inactive) | – | > 100 µM (inactive) | > 100 µM (inactive) | > 100 µM (inactive) | – | > 100 µM (inactive) | > 100 µM (inactive)
14 | CSc1ccc2c(cc1=O)C(NC(=O)c1ccccc1)CCc1cc(O)c(O)c(O)c1-2 (configuration not stated) | 37.6 µM (inactive) | 6.22 µM (inactive) | 18.1 | 6.01 µM (inactive) | 4.06 µM (inactive) | 22 µM (inactive) | 19 µM (inactive) | 16.3 µM (inactive) | 19.1 µM (inactive) | 22.9 µM (inactive) | 5.69 µM (inactive) | – | 5.05 µM (inactive) | 2.91 µM (inactive)
15 | CC(C)(C)C1CCC(CI)(N=[N+]=[N-])CC1 (configuration not stated) | > 100 µM (inactive) | > 100 µM (inactive) | > 100 | > 100 µM (inactive) | > 100 µM (inactive) | > 100 µM (inactive) | > 100 µM (inactive) | > 100 µM (inactive) | 79.1 µM (inactive) | > 100 µM (inactive) | > 100 µM (inactive) | 33.7 µM (inactive) | > 100 µM (inactive) | > 100 µM (inactive)
16 | COc1cc(/C=C(\C#N)C(=O)c2ccccc2)ccc1O | > 100 µM (inactive) | > 100 µM (inactive) | > 100 | > 100 µM (inactive) | – | > 100 µM (inactive) | > 100 µM (inactive) | > 100 µM (inactive) | > 100 µM (inactive) | > 100 µM (inactive) | > 100 µM (inactive) | > 100 µM (inactive) | > 100 µM (inactive) | –
17 | COC(=O)C1CC/C(=N/C2c3ccccc3-c3ccccc32)N1 (configuration not stated) | > 100 µM (inactive) | > 100 µM (inactive) | > 100 | > 100 µM (inactive) | 14.1 µM (inactive) | > 100 µM (inactive) | 32.7 µM (inactive) | > 100 µM (inactive) | 61.5 µM (inactive) | > 100 µM (inactive) | > 100 µM (inactive) | – | 63 µM (inactive) | 58.6 µM (inactive)
18 | CCOc1ccc(/C=C(\Cl)c2ccc(OC)c(OC)c2)cc1 | 36.4 µM (inactive) | 80.4 µM (inactive) | 20.9 | 98.6 µM (inactive) | 55.3 µM (inactive) | 84.9 µM (inactive) | – | 33.3 µM (inactive) | 20 µM (inactive) | 87.3 µM (inactive) | > 100 µM (inactive) | 12.2 µM (inactive) | 20.5 µM (inactive) | > 100 µM (inactive)
19 | COc1cc2c(cc1OC)C(CC(=O)NN=C(C)C)NCC2 (configuration not stated) | > 100 µM (inactive) | > 100 µM (inactive) | > 100 | > 100 µM (inactive) | > 100 µM (inactive) | > 100 µM (inactive) | > 100 µM (inactive) | > 100 µM (inactive) | > 100 µM (inactive) | > 100 µM (inactive) | > 100 µM (inactive) | > 100 µM (inactive) | > 100 µM (inactive) | > 100 µM (inactive)
20 | CNC(N)NC | > 100 µM (inactive) | > 100 µM (inactive) | > 100 | > 100 µM (inactive) | > 100 µM (inactive) | > 100 µM (inactive) | > 100 µM (inactive) | > 100 µM (inactive) | > 100 µM (inactive) | > 100 µM (inactive) | > 100 µM (inactive) | > 100 µM (inactive) | > 100 µM (inactive) | > 100 µM (inactive)
21 | Nc1ccccc1C(=O)C(Br)C(Br)c1ccc2c(c1)OCO2 (configuration not stated) | 18.2 µM (inactive) | 21.3 µM (inactive) | 20.8 | 21.8 µM (inactive) | 15 µM (inactive) | 28.6 µM (inactive) | 18.6 µM (inactive) | 27.4 µM (inactive) | 33.7 µM (inactive) | 26.4 µM (inactive) | 26.1 µM (inactive) | 46.1 µM (inactive) | 16.8 µM (inactive) | 20.9 µM (inactive)
22 | N#CCCN(CCC#N)c1ccc(/C=C(/NC(=O)c2cc([N+](=O)[O-])ccc2Cl)C(=O)N=[N+]=[N-])cc1 | > 100 µM (inactive) | > 100 µM (inactive) | > 100 | > 100 µM (inactive) | – | > 100 µM (inactive) | > 100 µM (inactive) | > 100 µM (inactive) | > 100 µM (inactive) | > 100 µM (inactive) | > 100 µM (inactive) | > 100 µM (inactive) | > 100 µM (inactive) | > 100 µM (inactive)
